In brackets after ≈: the same amount, converted by molar mass. Non-standard residues stand in square brackets, D forms with d. Residues, ends and D or L forms follow the SMILES beside them. 2Nal = N[C@@H](Cc1ccc2ccccc2c1)C(=O)O
Assays:
S. typhimurium 7731 = type: cell-based, Salmonella typhimurium
Protocol: (§1) The MIC values of the nano‐short peptides were determined according to standard protocols.^[ [63] ^] Bacterial strains were revived from cryopreservation and cultured in Mueller–Hinton broth (MHB) to logarithmic growth phase, then diluted to a final density of 0.5–1 × 10⁶ CFU mL^−1. Serial dilutions of the nano‐short peptides were prepared in 0.2% bovine serum albumin (BSA) using a 96‐well plate format. Equal volumes of peptide solutions and bacterial suspensions were combined and incubated at 37 °C for 20–22 h. Bacterial growth was assessed by measuring absorbance at 492 nm, with MHB alone (negative control) and untreated bacterial suspension (positive control) included for reference.

S. typhimurium 14028 = type: cell-based, Salmonella typhimurium
Protocol: as §1

S. epidermidis 12228 = type: cell-based, Staphylococcus epidermidis
Protocol: as §1

S. aureus 25923 = type: cell-based, Staphylococcus aureus
Protocol: as §1

S. aureus 29213 = type: cell-based, Staphylococcus aureus
Protocol: as §1

E. faecalis 29212 = type: cell-based, Enterococcus faecalis
Protocol: as §1

E. coli ATCC 25922 [1] = assay: Serum tolerance assay (MIC after incubation with serum); type: cell-based, Escherichia coli; settings: 4 h of incubation with various serum concentrations
Protocol: The serum stability of nano‐short peptides was evaluated by incubating peptide solutions with fetal bovine serum (FBS), which was at concentrations of 25%, 50%, and 100% (diluted in 0.2% BSA solution). Following 4 h of incubation, the antimicrobial activity was determined by measuring the MIC against the test strains.

S. pullorum C7913 = type: cell-based
Protocol: as §1

E. coli 078 = type: cell-based, Escherichia coli
Protocol: as §1

E. coli 25922 = type: cell-based, Escherichia coli
Protocol: as §1

E. coli UB1005 = type: cell-based, Escherichia coli
Protocol: as §1

MRSA 43300 = type: cell-based, Methicillin-Resistant Staphylococcus aureus
Protocol: as §1

P. aeruginosa PAO1 = type: cell-based, Pseudomonas aeruginosa
Protocol: as §1

P. aeruginosa 27853 = type: cell-based, Pseudomonas aeruginosa
Protocol: as §1

[2] = Critical aggregation concentration, 1,8-ANS fluorescence; type: physicochemical; settings: 1,8-ANS 1 × 10^−6 M, peptide 2-256 × 10^−6 M in deionized water, 1 h, ex 360 nm, em 420–670 nm, linear fitting of fluorescence intensities
Protocol: The self‐assembly behavior of nano‐short peptides was characterized by determining the CAC using 1,8‐ANS as a hydrophobic fluorescent probe.^[ [32] ^] Serial peptide dilutions (2‐256 × 10^−6 M in 50 µL deionized water) were prepared in 96‐well plates. 1,8‐ANS powder was solubilized in dimethylformamide (DMF) and added to the 96‐well plates (final concentration of 1 × 10^−6 M), and deionized water solution containing 1,8‐ANS was used as a blank control. After incubation for 1 h, the fluorescence emission spectra were continuously monitored with a microplate reader (Tecan Infinite200 Pro, λ excitation = 360 nm, λ emission = 420–670 nm). CAC values were determined by linear fitting of representative fluorescence intensities.

E. coli ATCC 25922 [3] = assay: Drug resistance assay, 30 serial passages; type: cell-based, Escherichia coli; settings: E. coli ATCC 25922, 30 successive passages at sub-MIC concentrations
Protocol: (§2) The potential resistance development of nano‐short peptides was evaluated through 30 serial passages of E. coli ATCC 25922 and S. aureus ATCC 29213 in sub‐MIC conditions,^[ [38] ^] using gentamicin as control.

S. aureus ATCC 29213 = assay: Drug resistance assay, 30 serial passages; type: cell-based, Staphylococcus aureus; settings: S. aureus ATCC 29213, 30 successive passages at sub-MIC concentrations; gentamicin by day 17
Protocol: as §2

P. aeruginosa 25349 = assay: MIC against clinical strain; type: cell-based; settings: Pseudomonas aeruginosa, 25349, read-out: MIC, P. aeruginosa 25349
Protocol: as §1

S. aureus 11011 = assay: MIC against clinical strain; type: cell-based; settings: Staphylococcus aureus, 11011, read-out: MIC, S. aureus 11011
Protocol: as §1

A. baumannii AB1901 = assay: MIC against clinical strain; type: cell-based; settings: Acinetobacter baumannii, AB1901, read-out: MIC, A. baumannii AB1901
Protocol: as §1

A. baumannii AB1902 = assay: MIC against clinical strain; type: cell-based; settings: Acinetobacter baumannii, AB1902, read-out: MIC, A. baumannii AB1902
Protocol: as §1

## N=C(N)NCCC[C@H](NC(=O)[C@H](Cc1ccc2ccccc2c1)NC(=O)[C@H](Cc1ccc2ccccc2c1)NC(=O)[C@@H](N)Cc1ccc2ccccc2c1)C(=O)N[C@H](CCCNC(=N)N)C(=O)N[C@@H](CCCNC(=N)N)C(=O)N1CCC[C@H]1C(=O)O [Peptide N3] (H-[2Nal][2Nal][2Nal]R[dR]RP-OH)
S. typhimurium 7731
  MIC, S. typhimurium 7731: 32 µM (≈ 37.6 µg/mL)
S. typhimurium 14028
  MIC, S. typhimurium 14028: 32 µM (≈ 37.6 µg/mL)
S. epidermidis 12228
  MIC, S. epidermidis 12228: 16 µM (≈ 18.8 µg/mL)
S. aureus 25923
  MIC, S. aureus 25923: 16 µM (≈ 18.8 µg/mL)
S. aureus 29213
  MIC, S. aureus 29213: 16 µM (≈ 18.8 µg/mL)
E. faecalis 29212
  MIC, E. faecalis 29212: 16 µM (≈ 18.8 µg/mL)
E. coli ATCC 25922 [1]
  antimicrobial capacity after serum incubation: retained their original antimicrobial capacity
S. pullorum C7913
  MIC, S. pullorum C7913: 16 µM (≈ 18.8 µg/mL)
E. coli 078
  MIC, E. coli 078: 8 µM (≈ 9.4 µg/mL)
E. coli 25922
  MIC, E. coli 25922: 16 µM (≈ 18.8 µg/mL)
E. coli UB1005
  MIC, E. coli UB1005: 8 µM (≈ 9.4 µg/mL)
MRSA 43300
  MIC, MRSA 43300: 16 µM (≈ 18.8 µg/mL)
P. aeruginosa PAO1
  MIC, P. aeruginosa PAO1: 16 µM (≈ 18.8 µg/mL)
P. aeruginosa 27853
  MIC, P. aeruginosa 27853: 8 µM (≈ 9.4 µg/mL)
[2]
  critical aggregation concentration (CAC): 62.79 µM

## CNC(C)C1CCC(N)C(OC2C(N)CC(N)C(OC3OCC(C)(O)C(NC)C3O)C2O)O1 (stereo not drawn) [Gentamicin]
E. coli ATCC 25922 [3]
  increase in MIC values after serial passage: 128 fold
S. aureus ATCC 29213
  increase in MIC values after serial passage: 128 fold
P. aeruginosa 25349
  MIC: 128 µM (≈ 61.1 µg/mL)
S. aureus 11011
  MIC: 128 µM (≈ 61.1 µg/mL)
A. baumannii AB1901
  MIC: 2 µM (≈ 0.955 µg/mL)
A. baumannii AB1902
  MIC: 128 µM (≈ 61.1 µg/mL)

— paper PMC12677699, “Utilizing Proteolytic‐Resistant Nano‐Short Peptide Based on Naphthyl Tail‐Anchored to Combat Bacterial Infections” (Advanced Science, 2025)
